Key:
[1] = system: TH; test: Western blot of TH protein levels in SH-SY5Y neuroblastoma cells; assay type: cell-based, human; conditions: for TH protein levels / TH expression: 24 h, treatment alone vs control (10 μM 27-OHC, 1 nM estradiol, 10 μM GW3965, 10 μM ECHS)
Protocol: (§1) Human neuroblastoma SH-SY5Y cells were grown in DMEM/F12 medium containing 10% fetal bovine serum (FBS) and 1% antibiotic/antimycotic mix. Cells were maintained at 37° C. in a saturated humidity atmosphere containing 95% air and 5% CO2.
(§2) Treated SH-SY5Y cells were washed with PBS and trypsinized to collect the cells and centrifuged at 5000 g. The pellet was washed again with PBS and homogenized in NE-PER tissue protein extraction reagent (Thermo Scientific, Rockford, Ill.) supplemented with protease and phosphatase inhibitors. Protein concentrations from the cytosolic and nuclear homogenates were determined with BCA protein assay.
(§3) Proteins (10 μg) were separated on SDS-PAGE gels, transferred to a polyvinylidene difluoride membrane (BioRad, Hercules, Calif.), and incubated with the following monoclonal antibodies: anti-TH mouse antibody (1:1000; Sigma Aldrich, Saint Louis, Mo.), anti-α-synuclein mouse antibody (1:500; Chemicon, Temecula, Calif.), anti-ERα rabbit antibody (1:500; Abcam, Cambridge, Mass.), anti-ERβ rabbit antibody (1:200; Upstate, Lake Placid, N.Y.), anti-LXRα rabbit antibody (1:500; Abcam, Cambridge, Mass.), anti-LXRβ mouse antibody (1:500; Abcam, Cambridge, Mass.).
(§4) β-actin and Lamin A were used as a gel loading control for cytosolic homogenates and nuclear homogenates respectively. The blots were developed with enhanced chemiluminescence (Immmun-star HRP chemiluminescent kit, Bio-Rad, Hercules, Calif.). Bands were visualized on a polyvinylidene difluoride membrane and analyzed by LabWorks 4.5 software on a UVP Bioimaging System (Upland, Calif.). Quantification of results was performed by densitometry and the results analyzed as total integrated densitometric values (arbitrary units).

[2] = biological target: T1, LXRα (Homo sapiens, UniProt Q13133); test: Western blot of LXRα levels in the nucleus, SH-SY5Y cells; assay type: cell-based; conditions: for LXRα protein levels in the nucleus: 24 h, treatment alone vs control; for 27-OHC-induced increase in LXRα in the nucleus: co-treatment with 10 μM 27-OHC
T1 construct: endogenous in cells; host or cells: SH-SY5Y human neuroblastoma cells
T1 sequence (Q13133 1-447): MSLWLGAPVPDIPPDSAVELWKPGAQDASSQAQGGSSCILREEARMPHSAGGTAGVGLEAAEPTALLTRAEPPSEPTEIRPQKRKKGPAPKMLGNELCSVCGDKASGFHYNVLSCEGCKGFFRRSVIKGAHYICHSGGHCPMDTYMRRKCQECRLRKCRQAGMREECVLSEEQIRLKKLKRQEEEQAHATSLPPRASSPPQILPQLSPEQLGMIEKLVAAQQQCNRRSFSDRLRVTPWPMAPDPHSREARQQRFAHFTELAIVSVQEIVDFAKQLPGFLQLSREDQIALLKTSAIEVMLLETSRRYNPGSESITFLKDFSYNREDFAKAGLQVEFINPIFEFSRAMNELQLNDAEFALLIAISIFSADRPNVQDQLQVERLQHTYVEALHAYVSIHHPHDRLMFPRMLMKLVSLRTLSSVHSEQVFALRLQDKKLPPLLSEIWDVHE
Protocol: as §1, §2, §3, §4

[3] = biological target: T2, LXRβ (Homo sapiens, UniProt P55055); test: Western blot of LXRβ levels in the nucleus, SH-SY5Y cells; assay type: cell-based; parameters: endogenous in cells; host or cells: SH-SY5Y human neuroblastoma cells; conditions: for LXRβ protein levels in the nucleus: 24 h, treatment alone vs control
T2 sequence (P55055 1-460): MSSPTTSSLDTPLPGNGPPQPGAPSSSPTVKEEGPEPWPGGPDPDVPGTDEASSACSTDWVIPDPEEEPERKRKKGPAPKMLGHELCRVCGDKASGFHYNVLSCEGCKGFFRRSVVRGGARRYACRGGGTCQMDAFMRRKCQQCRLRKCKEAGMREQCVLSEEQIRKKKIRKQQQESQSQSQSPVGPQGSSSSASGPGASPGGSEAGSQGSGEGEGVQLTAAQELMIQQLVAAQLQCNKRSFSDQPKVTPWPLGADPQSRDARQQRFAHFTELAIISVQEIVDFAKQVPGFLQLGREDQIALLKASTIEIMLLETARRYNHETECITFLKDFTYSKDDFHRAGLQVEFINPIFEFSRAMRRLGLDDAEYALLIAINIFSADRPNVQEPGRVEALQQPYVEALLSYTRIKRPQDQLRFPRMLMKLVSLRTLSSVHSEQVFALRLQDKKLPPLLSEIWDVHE
Protocol: as §1, §2, §3, §4

Compound	TH protein levels / TH expression [1]	LXRα protein levels in the nucleus [2]	27-OHC-induced increase in LXRα in the nucleus [2]	LXRβ protein levels in the nucleus [3]	effect of estradiol on 27-OHC-induced decrease in TH expression ([1]; ECHS added to 27-OHC+estradiol)	TH expression ([1]; in combination with estradiol)	27-OHC-induced increase in LXRβ in the nucleus ([3]; co-treatment with 10 μM 27-OHC)
Cl.O=C(O)Cc1cccc(OCCCN(Cc2cccc(C(F)(F)F)c2Cl)CC(c2ccccc2)c2ccccc2)c1 [GW3965, 3-[3-[N-(2-Chloro-3-trifluoromethylbenzyl)-(2,2-diphenylethyl)amino]propyloxy]phenylacetic acid hydrochloride]	no effect	more pronounced increase	to the same extent	more pronounced increase			
C[C@@H](CO)CCC[C@@H](C)[C@H]1CC[C@H]2[C@@H]3CC=C4C[C@@H](O)CC[C@]4(C)[C@H]3CC[C@]12C [27-OHC, 27-hydroxycholesterol]	significant decrease	increases		increases			
CC(C)CCC[C@@H](C)[C@H]1CC[C@H]2[C@@H]3C[C@@H]4O[C@@]45C[C@@H](OS(=O)(=O)O)CC[C@]5(C)[C@H]3CC[C@]12C [ECHS, 5α,6α-epoxycholesterol-3-sulfate]	no effect	reduced	significantly attenuated	reduced	does not alter	no effect	significantly attenuated

Reference: patent publication US20150031655A1, “COMBINATION OF LIVER X RECEPTOR MODULATOR AND ESTROGEN RECEPTOR MODULATOR FOR THE TREATMENT OF AGE-RELATED DISEASES” (UNIVERSITY OF NORTH DAKOTA, priority 2011, published 2015)
